# PMC7966503, “Deciphering the Pharmacological Mechanisms of Guizhi-Fuling Capsule on Primary Dysmenorrhea Through Network Pharmacology” (Frontiers in Pharmacology, 2021)
# Where “and” joins values, the source holds several entries; their conditions need not be identical. Equal entries are not always repeated. Where two headings read alike, the source gives them in different places.
# Columns and labels:
# recombinant human COX2 = target: T1, recombinant human COX2 (Homo sapiens, UniProt P35354); assay: COX2 activity assay (cyclooxygenase-2 inhibitor screening kit, fluorescence); format: biochemical; settings: duplicated samples
# T1 construct: purchased Beyotime #S0168
# T1 sequence (P35354 18-604): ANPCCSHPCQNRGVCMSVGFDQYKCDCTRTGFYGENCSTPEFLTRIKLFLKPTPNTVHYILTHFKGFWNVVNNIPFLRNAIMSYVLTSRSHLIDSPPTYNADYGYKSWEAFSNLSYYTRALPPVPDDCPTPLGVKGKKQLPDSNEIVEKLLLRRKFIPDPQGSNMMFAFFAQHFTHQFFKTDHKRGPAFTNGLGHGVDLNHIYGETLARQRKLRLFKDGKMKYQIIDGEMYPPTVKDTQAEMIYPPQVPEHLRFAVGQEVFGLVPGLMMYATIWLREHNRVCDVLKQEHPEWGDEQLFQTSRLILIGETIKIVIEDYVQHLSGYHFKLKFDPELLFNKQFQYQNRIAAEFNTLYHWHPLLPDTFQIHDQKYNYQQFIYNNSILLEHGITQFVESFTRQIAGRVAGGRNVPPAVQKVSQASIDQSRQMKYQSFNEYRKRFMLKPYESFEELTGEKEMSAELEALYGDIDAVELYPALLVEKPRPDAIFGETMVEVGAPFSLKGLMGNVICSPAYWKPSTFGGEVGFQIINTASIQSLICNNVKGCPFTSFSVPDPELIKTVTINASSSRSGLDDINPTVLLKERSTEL
# Source text: And then we selected predicted compounds and a specific target for preliminary analysis of their dosages and ratios as a starting point. In vitro enzyme activity assays were used to analyze the relationship between predicted GZFLC compounds’ different dosages and their intervention intensity on a specific target COX2, and to investigate GZFLC’s intervention intensity on COX2 under the specific ratio of GZFLC compounds which is relatively fixed in GZFLC. The content in the GZFLC (Jiangsu Kanion Pharmaceutical Co., Ltd. Jiangsu, China, No. 170601) was weighed and extracted with dimethyl sulfoxide (DMSO, 32.308:1, W/V, mg/ml) at 37°C for 30 min. The liquid was collected by centrifugation, and the supernatant was filtered through a 0.22 μ filter. The effect of GZFLC or pure chemicals including 1,2,3,4,6-penta-O-galloyl-beta-D-glucopyranose (purity (%) ≥98%, CAS: 14,937–32–7, Pubchem CID: 65238, Nanjing SenBeiJia Biological Technology Co., Ltd.), galloylpaeoniflorin (purity (%) ≥98%, CAS: 122,965–41–7, Pubchem CID: 46882879, Nanjing SenBeiJia Biological Technology Co., Ltd.), ethyl gallate (purity (%)≥98%, CAS: 831–61–8, Pubchem CID: 13250, Nanjing SenBeiJia Biological Technology Co., Ltd.) and gallic acid (purity (%)≥98%, CAS: 149–91–7, Pubchem CID: 370, Nanjing SenBeiJia Biological Technology Co., Ltd.) on COX2 activity was measured using cyclooxygenase-2 inhibitor screening kit (Beyotime, Cat. No. #S0168). Briefly, the recombinant human COX2 assay mixture (total volume = 90μL/well) consisting of assay buffer, cofactor, COX2 enzyme, and test compound (diluted in DMSO, 5.56% DMSO finally in assay) was incubated at 25°C for 5 min. Detection of the product was performed by adding probe (5μL/well). Arachidonic acid was added and the reaction was allowed to proceed for 15 min at 37°C. The fluorescence of the resulting solution was measured using SpectraMax M2e multilabel plate reader (Molecular Devices, United Kingdom). […] Data was represented as X¯±SD of duplicated samples. The effect of the samples on COX2 was calculated using the following equation: Relative activity of COX2(%)=(RFUsample−RFUBW/RFUA−RFUBW)×100%.
# [1] = test system: oxytocin-induced dysmenorrhea murine model; assay: Uterine histopathology (H&E) in oxytocin-induced dysmenorrhea murine model; format: in vivo, ICR mice; settings: ibuprofen 0.1 g/kg; GZFLC 0.54 and 1.08 g/kg oral, seven days
# Experimental: Oxytocin-induced dysmenorrhea in mice was performed according to the method previously reported ([Sun et al., 2002]). […] Except for the normal group (subcutaneous injection of saline), the other groups were administrated by subcutaneous estradiol benzoate injection (0.05 ml/mouse on the first and 10th day, and 0.025 ml/mouse on the remaining days) for ten consecutive days. […] On the 10th day, oxytocin (0.2 ml/2 IU/mouse) was administered by peritoneal injection 1 h after the last administration. The number of animal writhing times was observed and recorded within 30 min after injection of oxytocin. […] The mice were sacrificed immediately. The uterus tissues were fixed with 10% formalin for further study. The uterus tissues were fixed in 10% formalin and stained with hematoxylin and eosin (H&E). […] According to the severity of the lesion, it was recorded as one point (mild), two points (moderate), three points (severe), four points (extremely severe), no lesion was recorded as 0 point. All scores were accumulated and the average score ( X¯±SD ) of each animal in each group was calculated.
# [2] = test system: oxytocin-induced dysmenorrhea murine model; assay: Writhing response in oxytocin-induced dysmenorrhea murine model; format: in vivo, ICR mice; settings: 0.1 g/kg oral; within 30 min after oxytocin; mean±SEM, n = 10; model group 32.6 ± 8.5
# Experimental: Oxytocin-induced dysmenorrhea in mice was performed according to the method previously reported ([Sun et al., 2002]). […] Except for the normal group (subcutaneous injection of saline), the other groups were administrated by subcutaneous estradiol benzoate injection (0.05 ml/mouse on the first and 10th day, and 0.025 ml/mouse on the remaining days) for ten consecutive days. […] On the 10th day, oxytocin (0.2 ml/2 IU/mouse) was administered by peritoneal injection 1 h after the last administration. The number of animal writhing times was observed and recorded within 30 min after injection of oxytocin. […] The mice were sacrificed immediately. The uterus tissues were fixed with 10% formalin for further study.
# [3] = read-out: IC50, inhibition of the activity of COX2 in vitro (converted)
smiles,measurement,setting,value
O=C(O)c1cc(O)c(O)c(O)c1 [gallic acid],IC50,"recombinant human COX2; IC50, inhibition of the activity of COX2 in vitro",1950 nM and 1940 nM
CC(C)Cc1ccc(C(C)C(=O)O)cc1 (stereo not drawn) [ibuprofen],"degree of uterine lesions (histopathology, H&E)",[1],reducing the degree of uterine lesions
same,number of writhing times,[2],5.9 ± 2.1
CCOC(=O)c1cc(O)c(O)c(O)c1 [ethyl gallate],IC50,recombinant human COX2; [3],1110 nM
C[C@@]12C[C@@]3(O)O[C@@H](O1)[C@]1(COC(=O)c4ccccc4)[C@H]3C[C@@]12O[C@@H]1O[C@H](COC(=O)c2cc(O)c(O)c(O)c2)[C@@H](O)[C@H](O)[C@H]1O [galloylpaeoniflorin],IC50,recombinant human COX2; [3],740 nM and 743 nM
"O=C(OC[C@H]1O[C@@H](OC(=O)c2cc(O)c(O)c(O)c2)[C@H](OC(=O)c2cc(O)c(O)c(O)c2)[C@@H](OC(=O)c2cc(O)c(O)c(O)c2)[C@@H]1OC(=O)c1cc(O)c(O)c(O)c1)c1cc(O)c(O)c(O)c1 [1,2,3,4,6-penta-O-galloyl-beta-D-glucopyranose]",IC50,recombinant human COX2; [3],380 nM and 383 nM
